The values below are quoted from earlier work in paper doi:10.1101/2025.05.13.653654v1, “PEPlife2: A Updated Repository of the Half-life of Peptides” (bioRxiv, 2025).

The text on the series: Our database includes various chemical modifications aimed at enhancing the stability of peptides or proteins, such as PEGylation, Fc-conjugation, amino acid replacements (e.g., Lys substitutions followed by fatty acid conjugation), D-amino acid substitutions, non-natural amino acid substitutions (e.g., Aib, Sar, pGlu), cyclization, amidation, acetylation, and others.

Consider CMPRLRGC [VH434], for which the Half life was 1.16 h.
DRVYIHP [Ang(1-7)]: under “approximate values, effect of N-terminal acetylation and C-terminal amidation, matrix not given, curated database entry, ref not given”, the half-life result is “approximately 9 minutes”.
As for cMPRLRGC [VH445], the Half life was 3.03 h.
